Reference: BindingDB's records for doi:10.1073/pnas.88.17.7491 (Duke University, 1991)

Biological target: D(1A) dopamine receptor (Homo sapiens, UniProt P21728)
Sequence (P21728 whole entry): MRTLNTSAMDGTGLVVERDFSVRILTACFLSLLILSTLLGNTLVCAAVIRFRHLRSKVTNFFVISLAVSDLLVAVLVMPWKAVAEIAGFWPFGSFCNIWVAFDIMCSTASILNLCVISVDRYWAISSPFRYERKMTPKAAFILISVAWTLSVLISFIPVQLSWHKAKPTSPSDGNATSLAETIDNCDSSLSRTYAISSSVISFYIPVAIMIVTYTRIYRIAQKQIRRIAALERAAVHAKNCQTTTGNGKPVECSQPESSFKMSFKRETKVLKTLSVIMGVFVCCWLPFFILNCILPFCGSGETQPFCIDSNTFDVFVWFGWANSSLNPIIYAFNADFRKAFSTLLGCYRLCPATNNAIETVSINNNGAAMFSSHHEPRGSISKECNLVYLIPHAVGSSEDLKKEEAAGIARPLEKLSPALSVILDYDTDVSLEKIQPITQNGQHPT

Ki	Structure (SMILES)
75 nM	CN1CCN(C2=Nc3cc(F)ccc3Cc3ccccc32)CC1
0.65 nM	OCCC1CCN(CCC=C2c3ccc(F)cc3Sc3ccc(C(F)(F)F)cc32)CC1 [CAS_60197-32-2]

Structure (SMILES)	Ki
O=C(O)c1ccccc1C(=O)Nc1cccc2ccccc12 [NPA,(+)]	1540 nM
